Structures can show the parent of a compound that is named as a salt.
Key:
[1] = Human plasma stability assay; assay type: in vitro ADME; conditions: elimination rate constant k; heparinized human plasma, 37° C., 0-24 hours
Protocol: The compound was incubated in heparinized human plasma at 37° C. for 0, 1, 2, 4, 8 and 24 hours, and the change in compound concentration was measured by LC/MS/MS method. The elimination rate constant (=k(/h)) was calculated based on the fitted curve assuming the exponential decrease of concentration as follows; concentration at time x=initial concentration*exp(−k*x).

[2] = test system: CT-26 mouse tumor cells; assay: Anti-tumor effect in CT-26 syngeneic mice model; assay type: in vivo; conditions: Balb/C mice; intravenous q3dx3; Ex3a 30 mg/kg, Ex14 1.0 mg/kg
Protocol: (§1) Ex14 and Ex3a were tested in syngeneic tumor models in mice. […] See FIG. 8 and FIG. 9 for the anti-tumor effect colon carcinoma CT-26 syngeneic mice model, and FIG. 10 and FIG. 11 for the anti-tumor effect in the […] B16F10 syngeneic mice model.
(§2) 8×10^4 B16F10 and 2×10^5 CT-26 mouse tumor cells were subcutaneously implanted in the flank of female C57BL/6 (B16F10) and Balb/C (CT-26) mice (n=7 per group). Vehicle (1×PBS), compound Ex3a (30 mg/kg) or Ex14 (1.0 mg/kg) were intravenously administered (final volume of 100 μL) to tumor-bearing mice once the tumor volume has reached 100 mm^3 (Day 0). Vehicle, Ex3a or Ex14 were given every 3 days for a total of 3 doses (q3dx3). Tumor and body weight measurements were taken three times per week using vernier calipers and mettler scale, respectively. Tumor volumes were determined by multiplying the square of the width (‘W’), measured along the short axis of the tumor, by one-half the length (‘L’) measured along the […]

[3] = test system: B16F10 mouse tumor cells; assay: Anti-tumor effect in B16F10 syngeneic mice model; assay type: in vivo; conditions: C57BL/6 mice; intravenous q3dx3; Ex3a 30 mg/kg, Ex14 1.0 mg/kg
Protocol: as §1, §2

[4] = target: WT STING (human wild-type TMEM173 (H232R)) (Homo sapiens (Human), UniProt Q86WV6, H232R); assay: Reporter Gene Assay (2): ISRE NanoLuc reporter in STING-transfected 293T cells, with digitonin; assay type: cell-based; conditions: HEK-293T, 2′,3′-cGAMP (30 μM) = 100%, solvent = 0%, read-out: activity level against WT STING of test compound (30 μM)
WT STING (human wild-type TMEM173 (H232R)), sequence (Q86WV6 whole entry H232R): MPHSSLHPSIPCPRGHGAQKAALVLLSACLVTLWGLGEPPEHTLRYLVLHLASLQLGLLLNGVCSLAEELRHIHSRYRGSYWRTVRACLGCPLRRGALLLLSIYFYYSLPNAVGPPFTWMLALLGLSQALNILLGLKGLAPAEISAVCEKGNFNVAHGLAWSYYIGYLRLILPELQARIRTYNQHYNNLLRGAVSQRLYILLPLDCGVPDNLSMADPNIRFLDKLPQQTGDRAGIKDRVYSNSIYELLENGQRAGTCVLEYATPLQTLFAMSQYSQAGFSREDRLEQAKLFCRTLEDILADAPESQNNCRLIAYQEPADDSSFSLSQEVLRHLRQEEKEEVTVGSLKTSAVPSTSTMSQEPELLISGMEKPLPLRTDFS
Protocol: The culture solution was removed, and the test compound diluted with assay buffer (50 mM HEPES pH 7.0, 100 mM KCl, 3 mM MgCl2, 85 mM Sucrose, 0.1 mM DTT, 0.2% BSA, 1 mM ATP, 0.1 mM GTP, 10 μg/ml Digitonin) was added thereto by 15 μL/well. The cells were cultured at 37° C. under 5% CO2 condition for 30 min, and the assay buffer was removed. Dulbecco's Modified Eagle's Medium (DMEM) (Wako Pure Chemical Industries, Ltd.) containing 10% fetal bovine serum was added thereto by 20 μL/well, and the cells were cultured at 37° C. under 5°%° CO2 condition for 4 hr. Luminescence signals derived from firefly luciferase and NanoLuc Luciferase were each measured using EnVision (PerkinElmer, Waltham, MA, US) according to Nano-Glo Dual-Luciferase Reporter Assay System (Promega, Fitchburg, WI, US) protocol. The ratio of the count of NanoLuc Luciferase divided by the count of firefly luciferase was used for calculation. The activity level of each test compound was calculated when the ratio in the cells treated with 2′,3′-cGAMP (30 μM) was considered as 100%, and the ratio in the cells treated with the solvent was considered as 0%.

Nc1ncnc2c1ncn2[C@@H]1O[C@@H]2COP(=O)(S)O[C@@H]3[C@H](O)[C@@H](COP(=O)(S)O[C@H]2[C@H]1F)O[C@H]3n1cc(F)c2c(=O)[nH]cnc21 (stereo partly drawn) [Example 14, 7-((2R,5R,7R,8R,10R,12aR,14R,15R,15aR,16R)-14-(6-amino-9H-purin-9-yl)-15-fluoro-16-hydroxy-2,10-dioxido-2,10-disulfanyloctahydro-12H-5,8-methanofuro[3,2-1][1,3,6,9,11,2,10]pentaoxadiphosphacyclotetradecin-7-yl)-5-fluoro-3,7-dihydro-4H-pyrrolo[2,3-d]pyrimidin-4-one di sodium salt]
Human plasma stability [1]: <0.01 h⁻¹
anti-tumor effect, CT-26 syngeneic mice model [2]: anti-tumor effects were observed
anti-tumor effect, B16F10 syngeneic mice model [3]: anti-tumor effects were observed

Nc1ncnc2c1ncn2[C@@H]1O[C@@H]2COP(=O)(S)O[C@@H]3[C@H](O)[C@@H](COP(=O)(S)O[C@H]2[C@H]1O)O[C@H]3n1cc(F)c2c(=O)[nH]cnc21 (stereo partly drawn) [Example 5, 7-((5R,7R,8R,12aR,14R,15R,15aS,16R)-14-(6-amino-9H-purin-9-yl)-15,16-dihydroxy-2,10-dioxido-2,10-disulfanyloctahydro-12H-5,8-methanofuro[3,2-1][1,3,6,9,11,2,10]pentaoxadiphosphacyclotetradecin-7-yl)-5-fluoro-3,7-dihydro-4H-pyrrolo[2,3-d]pyrimidin-4-one di-triethylamine salt (Optical Isomer)]
activation at 30 µM [4]: 107%
Human plasma stability [1]: <0.01 h⁻¹

Nc1ncnc2c1ncn2[C@@H]1O[C@@H]2COP(=O)(O)O[C@@H]3[C@H](O)[C@@H](COP(=O)(S)O[C@H]2[C@H]1F)O[C@H]3n1cc(F)c2c(=O)[nH]cnc21 (stereo partly drawn) [Ex3a, disodium (5R,7R,8R,12aR,14R,15R,15aR,16R)-14-(6-amino-9H-purin-9-yl)-15-fluoro-7-(5-fluoro-4-oxo-3,4-dihydro-7H-pyrrolo[2,3-d]pyrimidin-7-yl)-16-hydroxy-2-sulfidooctahydro-12H-5,8-methanofuro[3,2-1][1,3,6,9,11,2,10]pentaoxadiphosphacyclotetradecin-10-olate 2,10-dioxide]
Human plasma stability [1]: 0.58 h⁻¹
anti-tumor effect, CT-26 syngeneic mice model [2]: anti-tumor effects were observed
anti-tumor effect, B16F10 syngeneic mice model [3]: anti-tumor effects were observed

From US12171777B2, “Methods of making a cyclic dinucleotide” (TAKEDA PHARMACEUTICAL COMPANY LIMITED, priority 2016, dated 2024)
